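Compound exposure: 48 hours, 5 concentrations, 96-well plates. GI50 marks 50% less growth. TGI is the concentration that stops growth completely.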
Columns and labels:
Test in all cases: NCI anticancer screen, dose series, 48 h
RPMI-8226 leukemia = tested on: RPMI-8226 leukemia
MOLT-4 leukemia = tested on: MOLT-4 leukemia
K-562 leukemia = tested on: K-562 leukemia
UACC-62 melanoma = tested on: UACC-62 melanoma
SW-620 colon = tested on: SW-620 colon
COLO 205 colon = tested on: COLO 205 colon
U251 CNS = tested on: U251 CNS
CCRF-CEM leukemia = tested on: CCRF-CEM leukemia
OVCAR-8 ovarian = tested on: OVCAR-8 ovarian
SK-MEL-5 melanoma = tested on: SK-MEL-5 melanoma

| SMILES | TGI (RPMI-8226 leukemia) [µM] | TGI (MOLT-4 leukemia) [µM] | TGI (K-562 leukemia) [µM] | TGI (UACC-62 melanoma) [µM] | TGI (SW-620 colon) [µM] | TGI (COLO 205 colon) [µM] | TGI (U251 CNS) [µM] | TGI (CCRF-CEM leukemia) [µM] | TGI (OVCAR-8 ovarian) [µM] | TGI (SK-MEL-5 melanoma) [µM] | GI50 (OVCAR-8 ovarian) [µM] | GI50 (MOLT-4 leukemia) [µM] | GI50 (SK-MEL-5 melanoma) [µM] | GI50 (UACC-62 melanoma) [µM] | GI50 (SW-620 colon) [µM] | GI50 (COLO 205 colon) [µM] | GI50 (U251 CNS) [µM] | GI50 (RPMI-8226 leukemia) [µM] | GI50 (CCRF-CEM leukemia) [µM] | GI50 (K-562 leukemia) [µM] |
| --- | --- | --- | --- | --- | --- | --- | --- | --- | --- | --- | --- | --- | --- | --- | --- | --- | --- | --- | --- | --- |
| CN(CCCCN)c1ccc2c(=O)[nH][nH]c(=O)c2c1 | > 100 | > 100 | > 100 | > 77 | > 100 | > 100 | > 100 | > 100 |  |  |  |  |  |  |  |  |  |  |  |  |
| Cc1nc(-n2nc(-c3ccccc3)cc2-c2ccccc2)sc1C(/C=C/c1ccc([N+](=O)[O-])cc1)=N/NC(N)=S | 45 | 81.4 | 62.7 | > 100 |  | > 100 | > 100 | 90.2 | > 100 | > 100 |  |  |  |  |  |  |  |  |  |  |
| O=Cc1cn(S(=O)(=O)c2ccccc2)c2ccccc12 | 59.3 | 53.1 | 50 | 86 | > 100 |  | > 100 | > 100 | > 100 |  |  |  |  |  |  |  |  |  |  |  |
| CC/C(=C(/CC)c1ccc(O)cc1)c1ccc(O)cc1 |  | 66.4 |  | 16.8 | 14.5 | 19.7 | 18.2 |  | 37.1 | 12.9 | 7.9 | 5.29 | 3.02 | 3.89 | 3.88 | 6.31 | 4.91 |  |  |  |
| COc1cc(OC)c(/C=C/C(=O)c2c(O)cc(OC)c(C3CCN(C)CC3)c2OC)c(OC)c1 | 2.83 | 3.61 |  |  | 3.02 | 3.23 | 2.52 | 2.78 |  | 3.07 |  | 1.63 | 1.64 |  | 1.45 | 1.8 | 1.27 | 1.11 | 1.18 |  |
| C/C(CC(=O)Nc1cccc(C)c1C)=N\NC(N)=S | > 100 | > 100 | > 100 | > 100 |  | > 100 | > 100 | > 100 | > 100 | > 100 |  |  |  |  |  |  |  |  |  |  |
| C1C[S][Ge]2([S]CCS1)[S]CCSCC[S]2 | > 100 | > 100 | > 100 | > 100 |  | > 100 |  | > 100 |  |  |  | > 100 |  | > 100 |  | > 100 |  | > 100 | > 100 | > 100 |
| CS(=O)(=O)c1ccc(-c2cnc(NCc3ccco3)n3cnnc23)cc1 | > 100 | > 100 | > 100 |  | > 100 | > 100 | > 100 | > 100 | > 100 | > 100 | > 100 | 37.4 | 31.7 |  | > 100 | 28.7 | > 100 | 53.3 | 38 | 72.6 |
| CNC(=O)c1cc(Oc2ccc3nc(NC(=O)Nc4cc(C(F)(F)F)cc(C(F)(F)F)c4)sc3c2)ccn1 | 3.81 |  | 4.86 | 2.1 | 3.29 | 2.32 | 2.2 | 5.83 | 2.69 | 2.09 | 1.33 |  | 0.593 | 0.583 | 1.56 | 0.822 | 1.02 | 1.02 | 1.07 | 0.784 |
| COC(=O)Cc1nn2c(nc1=O)sc1ccc3ccccc3c12 |  | > 100 | > 100 |  | > 100 | > 100 | 74.1 | > 100 | > 100 | > 100 |  |  |  |  |  |  |  |  |  |  |
| O=C(O)c1c[nH]c2c(ccc3[nH]cc(C(=O)O)c(=O)c32)c1=O | > 100 | > 100 | > 100 | > 100 | > 100 | > 100 | > 100 |  | > 100 | > 100 |  |  |  |  |  |  |  |  |  |  |
| CN1c2ccccc2S(=O)(=O)n2c(COc3ccccc3)nnc21 |  | > 100 | > 100 | > 100 | > 100 | > 100 | > 100 | > 100 | > 100 | > 100 |  |  |  |  |  |  |  |  |  |  |
| C=C(C)[C@@H]1CC[C@]2(C(=O)N3CCN(C)CC3)CC[C@]3(C)[C@H](CC[C@@H]4[C@@]5(C)CC[C@H](O)C(C)(C)[C@@H]5CC[C@]43C)[C@@H]12 |  |  |  | 3.3 | 3.7 | 4.26 |  |  | 4.56 | 3.15 | 1.69 |  | 1.72 | 1.72 | 1.74 | 1.89 |  |  |  |  |
| COc1ccc2c(c1)CC1N(C)CCC13CCCCC23 (configuration not stated) | > 100 | > 100 | > 100 | > 100 |  | > 100 | > 100 | > 100 | > 100 | > 100 |  |  |  |  |  |  |  |  |  |  |
| Cc1nc2cc(Nc3nc(Nc4ccc(F)cc4)nc(N4CCCC4)n3)ccc2n1Cc1ccccc1 | 4.55 | 5.68 |  | 2.99 | 3.14 | 3.48 | 3.36 | 5.6 | 4.79 | 3.09 | 2.15 | 2.52 | 1.66 | 1.62 | 1.66 | 1.79 | 1.66 | 1.86 | 2.38 |  |
| O=c1[nH]c(-c2ccc([N+](=O)[O-])cc2)nc2ccc(Cl)cc12 | > 100 | > 100 | 38.8 | > 100 | > 100 | > 100 | > 100 |  | > 100 | > 100 |  |  |  |  |  |  |  |  |  |  |
| CCOC(=O)Cn1c(=O)[nH]c(=O)c2[nH]cnc21 |  | > 100 | > 100 | > 100 | > 100 | > 100 | > 100 | > 100 | > 100 | > 100 |  |  |  |  |  |  |  |  |  |  |
| CCOC(=O)CP(=S)(S)c1ccccc1 (configuration not stated) |  | > 100 | > 100 | > 100 | > 100 | > 100 | > 100 | > 100 | > 100 | > 100 |  |  |  |  |  |  |  |  |  |  |
| O=C(O)C1C2CCC(O2)C1C(=O)NCc1cccnc1 (configuration not stated) | > 100 |  |  | > 100 | > 100 | > 100 | > 100 | > 100 |  | > 100 |  |  |  |  |  |  |  |  |  |  |
| NNC(=S)NN/C=C(\C=Nc1ccccc1)[N+](=O)[O-] | > 100 |  |  | > 100 | > 100 | > 100 |  |  | > 100 |  |  |  |  |  |  |  |  |  |  |  |

Reference: PubChem BioAssay (NCI)
